One experiment has as its target T1, JAK2 (Homo sapiens, UniProt O60674).
T1 construct: host or cells: baculovirus expression system
The experiment can be described thus: Recombinant Human JAK2 Kinase Assay (TRF). The class given is biochemical. The note with it: JAK2 kinase inhibition, 0.2 μM ATP; read-out: JAK2 Potency. In outline:
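Baculovirus-expressed JAK2 (15 ng/ml) phosphorylated a biotinylated 15-mer peptide captured on Neutravidin, in 20 mM HEPES pH 7.2, 0.2 μM ATP, 1 mM MnCl2, 0.1% BSA, 2.5% DMSO final, 20 min at room temperature. Phosphoproduct detected by time-resolved fluorescence with Eu-N1-labelled PY100 antibody.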

The next experiment concerns the target T2, ALK (Homo sapiens, UniProt Q9UM73).
T2 construct: host or cells: baculovirus expression system
The experiment is described as follows: ALK Kinase Assay (ELISA/TRF, PLC-γ substrate). The format is biochemical. To be noted: ALK kinase inhibition, 1 μM ATP; read-out: ALK Potency. In outline: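 Read-out is time-resolved fluorescence from a Eu-N1-labeled PT66 antibody that binds phosphorylated PLC-γ, the substrate coated at 10 μg/mL in TBS. ALK at 30 ng/ml starts the reaction, which runs 15 minutes at 37° C.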
On the technique in general: ELISA stands for enzyme-linked immunosorbent assay.

Results on 27 molecules are retold here after patent US8471005B2 (Cephalon, Inc., priority 2008, dated 2013).

T2 sequence (Q9UM73 19-1620): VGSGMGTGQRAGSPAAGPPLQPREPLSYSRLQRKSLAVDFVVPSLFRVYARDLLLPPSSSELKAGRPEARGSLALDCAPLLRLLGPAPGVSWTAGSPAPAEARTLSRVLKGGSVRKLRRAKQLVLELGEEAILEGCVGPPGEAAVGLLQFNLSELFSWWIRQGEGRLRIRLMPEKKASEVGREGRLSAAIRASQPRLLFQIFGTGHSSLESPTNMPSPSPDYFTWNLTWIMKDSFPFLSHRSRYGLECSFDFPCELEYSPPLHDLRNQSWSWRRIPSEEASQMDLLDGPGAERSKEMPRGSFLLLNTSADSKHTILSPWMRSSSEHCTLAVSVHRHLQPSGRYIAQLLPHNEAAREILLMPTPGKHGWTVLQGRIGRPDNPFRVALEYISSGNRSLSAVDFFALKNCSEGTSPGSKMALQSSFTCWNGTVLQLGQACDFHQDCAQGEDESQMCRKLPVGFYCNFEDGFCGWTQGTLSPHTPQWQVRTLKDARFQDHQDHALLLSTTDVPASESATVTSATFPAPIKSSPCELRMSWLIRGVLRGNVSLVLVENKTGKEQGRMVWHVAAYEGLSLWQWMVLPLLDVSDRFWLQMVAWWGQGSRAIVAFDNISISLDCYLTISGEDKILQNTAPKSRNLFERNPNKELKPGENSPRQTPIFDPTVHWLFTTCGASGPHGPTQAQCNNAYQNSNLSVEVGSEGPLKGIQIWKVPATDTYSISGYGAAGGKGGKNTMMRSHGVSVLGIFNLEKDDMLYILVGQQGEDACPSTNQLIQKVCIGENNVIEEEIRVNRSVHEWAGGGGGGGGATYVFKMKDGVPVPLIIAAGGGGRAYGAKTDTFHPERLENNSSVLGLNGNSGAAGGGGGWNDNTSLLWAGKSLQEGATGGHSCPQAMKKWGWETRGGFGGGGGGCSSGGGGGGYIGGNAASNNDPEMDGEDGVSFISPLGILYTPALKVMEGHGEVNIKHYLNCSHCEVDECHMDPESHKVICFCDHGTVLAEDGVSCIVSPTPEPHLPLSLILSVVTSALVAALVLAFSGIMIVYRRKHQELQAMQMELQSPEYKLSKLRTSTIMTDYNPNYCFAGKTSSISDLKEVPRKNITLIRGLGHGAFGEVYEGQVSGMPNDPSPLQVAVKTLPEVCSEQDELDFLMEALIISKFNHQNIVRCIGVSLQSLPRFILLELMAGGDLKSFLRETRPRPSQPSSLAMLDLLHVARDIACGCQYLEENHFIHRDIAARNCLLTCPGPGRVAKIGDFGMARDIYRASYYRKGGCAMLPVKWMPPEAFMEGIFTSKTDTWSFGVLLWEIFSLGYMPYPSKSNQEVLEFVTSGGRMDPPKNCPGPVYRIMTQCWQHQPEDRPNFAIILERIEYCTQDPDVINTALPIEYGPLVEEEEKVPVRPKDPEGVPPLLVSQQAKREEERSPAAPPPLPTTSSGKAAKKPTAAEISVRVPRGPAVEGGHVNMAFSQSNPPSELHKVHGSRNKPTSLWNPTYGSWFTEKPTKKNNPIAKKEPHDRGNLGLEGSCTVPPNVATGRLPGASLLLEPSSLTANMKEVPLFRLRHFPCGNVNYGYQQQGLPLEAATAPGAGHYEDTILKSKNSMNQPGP
T1 sequence (O60674 whole entry): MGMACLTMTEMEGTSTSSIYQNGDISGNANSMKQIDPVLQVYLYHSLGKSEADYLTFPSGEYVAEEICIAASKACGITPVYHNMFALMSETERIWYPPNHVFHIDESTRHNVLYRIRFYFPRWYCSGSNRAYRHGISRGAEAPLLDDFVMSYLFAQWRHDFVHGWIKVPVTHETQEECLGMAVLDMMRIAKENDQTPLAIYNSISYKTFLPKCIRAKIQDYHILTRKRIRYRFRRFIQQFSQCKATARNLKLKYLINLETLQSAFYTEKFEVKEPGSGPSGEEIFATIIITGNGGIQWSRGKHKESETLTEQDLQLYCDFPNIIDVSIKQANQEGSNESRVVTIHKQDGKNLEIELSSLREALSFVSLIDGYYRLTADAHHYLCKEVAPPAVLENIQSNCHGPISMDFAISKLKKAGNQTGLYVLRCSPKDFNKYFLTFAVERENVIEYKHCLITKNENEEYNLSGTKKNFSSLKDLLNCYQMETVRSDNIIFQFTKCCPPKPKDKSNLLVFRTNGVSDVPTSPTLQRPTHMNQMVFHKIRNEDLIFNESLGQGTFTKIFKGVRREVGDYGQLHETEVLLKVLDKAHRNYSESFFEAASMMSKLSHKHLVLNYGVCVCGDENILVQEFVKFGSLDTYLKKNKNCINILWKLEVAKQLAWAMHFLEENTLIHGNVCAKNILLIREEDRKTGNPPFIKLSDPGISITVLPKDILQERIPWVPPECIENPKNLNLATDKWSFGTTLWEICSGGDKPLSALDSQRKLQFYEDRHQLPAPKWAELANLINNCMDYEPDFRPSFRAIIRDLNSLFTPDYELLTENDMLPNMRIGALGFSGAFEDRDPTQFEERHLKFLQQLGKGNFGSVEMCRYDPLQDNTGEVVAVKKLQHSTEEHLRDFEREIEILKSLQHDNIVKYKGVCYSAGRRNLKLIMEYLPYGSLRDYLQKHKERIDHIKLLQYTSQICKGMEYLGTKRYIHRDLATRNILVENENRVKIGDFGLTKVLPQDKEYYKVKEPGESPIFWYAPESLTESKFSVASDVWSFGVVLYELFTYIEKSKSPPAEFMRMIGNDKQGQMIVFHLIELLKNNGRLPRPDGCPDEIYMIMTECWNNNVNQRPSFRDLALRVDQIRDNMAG

For `COc1ccccc1-c1ccc2cnc(Nc3ccc4c(c3)N(C(C)=O)CCCC4)nn12` [Example 639, 1-{8-[7-(2-Methoxyphenyl)-pyrrolo[2,1-f][1,2,4]triazin-2-ylamino]-2,3,4,5-tetrahydrobenzo[b]azepin-1-yl}ethanone], the IC50 is under 100 nM at JAK2 and 1000 to 10000 nM on ALK.
In the case of `CN1C(=O)COc2cc(Nc3ncc4ccc(-c5ccccc5N(C)S(C)(=O)=O)n4n3)ccc21` [Example 640, N-Methyl-N-{2-[2-(4-methyl-3-oxo-3,4-dihydro-2H-benzo[1,4]oxazin-7-ylamino)-pyrrolo[2,1-f][1,2,4]triazin-7-yl]-phenyl}-methanesulfonamide], the results for the IC50 on JAK2 and at ALK were under 100 nM and 100 to 1000 nM, respectively.
For `CN1CCOc2ccc(Nc3ncc4ccc(-c5ccccc5N(C)S(C)(=O)=O)n4n3)cc21` [Example 641, N-Methyl-N-{2-[2-(4-methyl-3,4-dihydro-2H-benzo[1,4]oxazin-6-ylamino)-pyrrolo[2,1-f][1,2,4]triazin-7-yl]-phenyl}methanesulfonamide], in that order: under 100 nM and 100 to 1000 nM.
`CN1CCOc2ccc(Nc3ncc4ccc(-c5cccnc5)n4n3)cc21` [Example 642, (4-Methyl-3,4-dihydro-2H-benzo[1,4]oxazin-6-yl)-(7-pyridin-3-yl-pyrrolo[2,1-f][1,2,4]triazin-2-yl)-amine]: the IC50 was under 100 nM at JAK2 and 1000 to 10000 nM on ALK.
As for `CN1CCOc2ccc(Nc3ncc4ccc(-c5cccc(NS(C)(=O)=O)c5)n4n3)cc21` [Example 643, N-{3-[2-(4-Methyl-3,4-dihydro-2H-benzo[1,4]oxazin-6-ylamino)-pyrrolo[2,1-f][1,2,4]triazin-7-yl]-phenyl}methanesulfonamide], the IC50 on JAK2 is under 100 nM; at ALK, 100 to 1000 nM.
For the molecule `COc1ccc(-c2ccc3cnc(Nc4ccc5c(c4)N(C)CCO5)nn23)cn1` [Example 644, [7-(6-Methoxy-pyridin-3-yl)-pyrrolo[2,1-f][1,2,4]triazin-2-yl]-(4-methyl-3,4-dihydro-2H-benzo[1,4]oxazin-6-yl)-amine], the IC50 at JAK2 was under 100 nM; on ALK, 1000 to 10000 nM.
Take `COc1ccccc1-c1ccc2cnc(Nc3ccc4c(c3)N(C)CCO4)nn12` [Example 645, [7-(2-Methoxy-phenyl)-pyrrolo[2,1-f][1,2,4]triazin-2-yl]-(4-methyl-3,4-dihydro-2H-benzo[1,4]oxazin-6-yl)-amine]: the IC50 is under 100 nM on JAK2 and 100 to 1000 nM at ALK.
For `Cn1cc(-c2ccc3cnc(Nc4ccc5c(c4)NC(=O)C5)nn23)cn1` [Example 646, 6-[7-(1-Methyl-1H-pyrazol-4-yl)-pyrrolo[2,1-f][1,2,4]triazin-2-ylamino]-1,3-dihydro-indol-2-one], in that order: under 100 nM and 1000 to 10000 nM.
For `COc1ccccc1-c1ccc2cnc(Nc3ccc4c(c3)OCC(=O)N4C)nn12` [Example 647, 7-[7-(2-Methoxy-phenyl)-pyrrolo[2,1-f][1,2,4]triazin-2-ylamino]-4-methyl-4H-benzo[1,4]oxazin-3-one], in that order: under 100 nM and 100 to 1000 nM.
For `CN1C(=O)COc2cc(Nc3ncc4ccc(-c5cccc(S(=O)(=O)NC(C)(C)C)c5)n4n3)ccc21` [Example 648, N-tert-Butyl-3-[2-(4-methyl-3-oxo-3,4-dihydro-2H-benzo[1,4]oxazin-7-ylamino)-pyrrolo[2,1-f][1,2,4]triazin-7-yl]-benzenesulfonamide], in that order: under 100 nM and 100 to 1000 nM.
With `CN1C(=O)COc2cc(Nc3ncc4ccc(-c5cccnc5)n4n3)ccc21` [Example 649, 4-Methyl-7-(7-pyridin-3-yl-pyrrolo[2,1-f][1,2,4]triazin-2-ylamino)-4H-benzo[1,4]oxazin-3-one], the IC50 at JAK2 was under 100 nM; on ALK it was 1000 to 10000 nM.
In the case of `CN1CCOc2ccc(Nc3ncc4ccc(-c5cccc(S(=O)(=O)NC(C)(C)C)c5)n4n3)cc21` [Example 650, N-tert-Butyl-3-[2-(4-methyl-3,4-dihydro-2H-benzo[1,4]oxazin-6-ylamino)-pyrrolo[2,1-f][1,2,4]triazin-7-yl]-benzenesulfonamide], the IC50 is under 100 nM at JAK2 and 100 to 1000 nM on ALK.
For `CCN1CCOC(c2ccc(Nc3ncc4ccc(-c5cccc(NS(C)(=O)=O)c5)n4n3)cc2)C1` (stereo not drawn) [Example 651, N-(3-{2-[4-(4-Ethyl-morpholin-2-yl)-phenylamino]-pyrrolo[2,1-f][1,2,4]triazin-7-yl}phenyl)methanesulfonamide], in that order: under 100 nM and 100 to 1000 nM.
For `CC(C)(C)NS(=O)(=O)c1cccc(-c2ccc3cnc(Nc4ccc5c(c4)NC(=O)C5)nn23)c1` [Example 652, N-tert-Butyl-3-[2-(2-oxo-2,3-dihydro-1H-indol-6-ylamino)-pyrrolo[2,1-f][1,2,4]triazin-7-yl]-benzenesulfonamide], in that order: under 100 nM and 1000 to 10000 nM.
For `CCN1CCOC(c2ccc(Nc3ncc4ccc(-c5cccc(S(=O)(=O)NC(C)(C)C)c5)n4n3)cc2)C1` (stereo not drawn) [Example 653, N-tert-Butyl-3-{2-[4-(4-ethyl-morpholin-2-yl)-phenylamino]-pyrrolo[2,1-f][1,2,4]triazin-7-yl}benzenesulfonamide], in that order: under 100 nM and 100 to 1000 nM.
With `CC(C)(C)NS(=O)(=O)c1cccc(-c2ccc3cnc(Nc4ccc5c(c4)NC(=O)C5(C)C)nn23)c1` [Example 655, N-tert-Butyl-3-[2-(3,3-dimethyl-2-oxo-2,3-dihydro-1H-indol-6-ylamino)-pyrrolo[2,1-f][1,2,4]triazin-7-yl]-benzenesulfonamide], the IC50 is under 100 nM on JAK2 and 100 to 1000 nM at ALK.
For `COc1ccccc1-c1ccc2cnc(Nc3ccc4c(c3)NC(=O)C4(C)C)nn12` [Example 656, 6-[7-(2-Methoxy-phenyl)-pyrrolo[2,1-f][1,2,4]triazin-2-ylamino]-3,3-dimethyl-1,3-dihydro-indol-2-one], the IC50 at JAK2 was under 100 nM; at ALK it was 100 to 1000 nM.
For `COc1ccc(-c2ccc3cnc(Nc4ccc5c(c4)NC(=O)C5(C)C)nn23)cn1` [Example 658, 6-[7-(6-Methoxy-pyridin-3-yl)-pyrrolo[2,1-f][1,2,4]triazin-2-ylamino]-3,3-dimethyl-1,3-dihydro-indol-2-one], in that order: under 100 nM and over 10000 nM.
For `COc1ccccc1-c1ccc2cnc(Nc3ccc4c(c3)CS(=O)(=O)C4)nn12` [Example 659, (2,2-Dioxo-2,3-dihydro-1H-2$1(6)-benzo[c]thiophen-5-yl)-[7-(2-methoxy-phenyl)-pyrrolo[2,1-f][1,2,4]triazin-2-yl]-amine], in that order: under 100 nM and under 100 nM.
For the molecule `COc1ccccc1-c1ccc2cnc(Nc3ccc(C4CCN(CC(N)=O)CC4)cc3)nn12` [Example 660, 2-(4-{4-[7-(2-Methoxy-phenyl)-pyrrolo[2,1-f][1,2,4]triazin-2-ylamino]-phenyl}-piperidin-1-yl)-acetamide], the IC50 on JAK2 and at ALK was under 100 nM each time.
`CN1CCC(c2ccc(Nc3ncc4ccc(-c5cccc(N(C)C)c5)n4n3)cc2)CC1` [Example 662, [7-(3-Dimethylamino-phenyl)-pyrrolo[2,1-f][1,2,4]triazin-2-yl]-[4-(1-methyl-piperidin-4-yl)-phenyl]-amine]: the IC50 on JAK2 and at ALK was under 100 nM in each case.
Take `CC(C)(C)NS(=O)(=O)c1cccc(-c2ccc3cnc(Nc4ccc5c(c4)CS(=O)(=O)C5)nn23)c1` [Example 663, N-tert-Butyl-3-[2-(2,2-dioxo-2,3-dihydro-1H-2$1(6)-benzo[c]thiophen-5-ylamino)-pyrrolo[2,1-f][1,2,4]triazin-7-yl]-benzenesulfonamide]: the IC50 on JAK2 was under 100 nM; at ALK, 100 to 1000 nM.
`NC(=O)CN1CCC(c2ccc(Nc3ncc4ccc(C5=CCNCC5)n4n3)cc2)CC1` [Example 664, 2-(4-{4-[7-(1,2,3,6-Tetrahydro-pyridin-4-yl)-pyrrolo[2,1-f][1,2,4]triazin-2-ylamino]-phenyl}-piperidin-1-yl)-acetamide]: the IC50 at JAK2 is under 100 nM; on ALK, 100 to 1000 nM.
For the molecule `CC(C)(C)NS(=O)(=O)c1cccc(-c2ccc3cnc(Nc4cncc(C(N)=O)c4)nn23)c1` [Example 665, 5-[7-(3-tert-Butylsulfamoyl-phenyl)-pyrrolo[2,1-f][1,2,4]triazin-2-ylamino]-nicotinamide], the IC50 at JAK2 is under 100 nM; on ALK, over 10000 nM.
For `CN(c1ccccc1-c1ccc2cnc(Nc3cncc(C(N)=O)c3)nn12)S(C)(=O)=O` [Example 666, 5-{7-[2-(Methanesulfonyl-methyl-amino)-phenyl]-pyrrolo[2,1-f][1,2,4]triazin-2-ylamino}-nicotinamide], in that order: under 100 nM and 1000 to 10000 nM.
Turning to `COc1ccc(-c2ccc3cnc(Nc4cncc(C(N)=O)c4)nn23)cn1` [Example 667, 5-[7-(6-Methoxy-pyridin-3-yl)-pyrrolo[2,1-f][1,2,4]triazin-2-ylamino]-nicotinamide], the IC50 at JAK2 is under 100 nM; at ALK it was 100 to 1000 nM.
For `COc1ccccc1-c1ccc2cnc(Nc3ccc(C4CCN(CCO)CC4)cc3)nn12` [Example 668, 2-(4-{4-[7-(2-Methoxy-phenyl)-pyrrolo[2,1-f][1,2,4]triazin-2-ylamino]-phenyl}-piperidin-1-yl)-ethanol], in that order: under 100 nM and under 100 nM.
